Non-standard residues stand in square brackets, D forms with d. Residues, ends and D or L forms follow the SMILES beside them.
What was measured:
[1] = tested on: blood-brain barrier (BBB); details: parent versions, in several studies; ref not given; cited from earlier work
Source text: (§1) We have applied this previously described strategy to a family of peptide BBB shuttles (H2N-HAIYPRH-CONH2 and H2N-THRPPMWSPVWP-CONH2[14], namely HAI and THR peptides, respectively). BBB shuttles are molecular entities of diverse origin, e.g. synthetic or natural peptides, which have the capacity to cross the blood-brain barrier (BBB) and, when covalently conjugated to drugs unable to cross the BBB unaided, can deliver them into the central nervous system (CNS)[15]. Those that cross through receptor-mediated transcytosis are also included in the term ‘molecular Trojan horses’[16],[17]. Although ...

[2] = tested on: BALB/c mice; test: Mouse immunization with unconjugated peptides, titration of peptide-specific antibodies in serum by ELISA; type: in vivo; details: seven i.p. doses of 50 μg, BALB/c mice (four per group), CFA first dose, IFA boosters, PBS last, ELISA on peptide-BSA conjugate, serum diluted from 1:100, anti-Mouse IgG-HRP, read at 450 nm, Fig. 3a, b
Source text: To date, several studies have used D-peptides as tools for vaccine development. In these cases the peptides have been conjugated to large supramolecular entities, e.g. KLH and small unilamelar liposomes containing monophosphoryl lipid A[23],[24]. Nevertheless, the use of retro-D-peptides as therapeutics was controversial twenty years ago[25],[26]. Thus, to shed light on the immunogenicity of D-peptides and add further value to these compounds, we evaluated the immunological responses activated by retro-D-THR and retro-D-HAI peptides and compared them to that of their parent peptides. For this purpose, peptides (not conjugated) were i.p. administered to mice, and antibody titration was used as parameter to evaluate immunological (humoral) response by ELISA.
Four groups of four BALB/c mice were treated with either one of the parent peptides or their retro-D-version. Each mouse received seven doses i.p. of 50 μg of peptide. Complete Freund’s[49] adjuvant (CFA) was administered in the first dose, incomplete Freund’s adjuvant (IFA) in the subsequent five booster injections, and PBS in the last one. Bleedings for the titration of specific antibody production were performed before the first dose (time zero bleeding) and five days after the fourth and last dose (Supplementary Scheme 1). The peptide-specific humoral response was quantified by ELISA. MaxiSorp plates (Nunc) were treated with 0.1 mL of the corresponding peptide-BSA conjugate (1 μg) per well in carbonate buffer, overnight at 4 °C (Supplementary Fig. 6b). Afterwards, plates were blocked with 0.2 mL PBS-Tween 20 (T20) containing 2% of milk powder for 2 h a 37 °C. Each sample serum was consecutively diluted 1/2 (starting by dilution 1:100) in PBS-T20 and incubated for 1 h at 37 °C. Incubation with a secondary antibody (dil. 1/5,000) anti-Mouse IgG-HRP (ref. R1253HRP; batch 26922; Acris) was left for 1 h at 37 °C. Washes (x3) with PBST (300 μl/well) were applied after each antibody incubation. Finally, TMB (100 μl/well) was added and left for 30 min, when the stop solution (100 μl, HClaq 1 N) blocked the colorimetric reaction. Plates were read at 450 nm (Fig. 3a–c). […]
Data were processed using GraphPad Prism 6.0 software. […] Data from human serum stability assays were analyzed as non-linear one-phase exponential decay model for L-peptides and as standard linear model with zero slope for D-peptides. Deviations from a value of 100 at each dilution point were assessed using a linear model, in which group and interaction were included as covariates. In immune response studies, each dilution point (in ELISAs) was analyzed by a Mann-Whitney test to assess differences between S0 with S1 or S2. […]

[3] = Protease resistance; type: in vitro ADME; details: as stated in abstract
Description: Data were processed using GraphPad Prism 6.0 software. All results are presented as mean + SEM. Data from human serum stability assays were analyzed as non-linear one-phase exponential decay model for L-peptides and as standard linear model with zero slope for D-peptides. Deviations from a value of 100 at each dilution point were assessed using a linear model, in which group and interaction were included as covariates. In immune response studies, each dilution point (in ELISAs) was analyzed by a Mann-Whitney test to assess differences between S0 with S1 or S2. In both cases, 5% was set as a threshold for statistical significance.

[4] = demonstrated earlier by the authors' laboratory; ref 21 (printed for retro-D-THR); cited from earlier work
Source text: as §1

Row | Compound | BBB permeability [1] | immunogenicity (peptide-specific humoral response, antibody titration) [2] | immunogenicity (peptide-specific humoral response, antibody titration) ([2]; listed as H2N-pwvpswmpprht-CONH2) | protease resistance [3] | protease-resistance [4] | immunogenicity (peptide-specific humoral response, antibody titration) ([2]; listed as H2N-hrpyiah-CONH2)
1 | H2N-HAIYPRH-CONH2 [parent L-peptide BBB shuttle, H2N-HAIYPRH-CONH2] | efficient BBB permeability |  |  |  |  | 
2 | CSCC[C@@H](NC(=O)[C@@H](Cc1c[nH]c2ccccc12)NC(=O)[C@@H](CO)NC(=O)[C@H]1CCCN1C(=O)[C@H](NC(=O)[C@@H](Cc1c[nH]c2ccccc12)NC(=O)[C@H]1CCCN1)C(C)C)C(=O)N1CCC[C@@H]1C(=O)N1CCC[C@@H]1C(=O)N[C@H](CCCNC(=N)N)C(=O)N[C@H](Cc1c[nH]cn1)C(=O)N[C@@H](C(N)=O)[C@H](C)O [retro-D-THR] (H-[dP][dW][dV][dP][dS][dW][dM][dP][dP][dR][dH][dT]-NH2) |  | not immunogenic per se | much less immunogenic than the parent peptide | protease-resistant | protease-resistance | 
3 | H2N-THRPPMWSPVWP-CONH2 (H-THRPPMWSPVWP-NH2) [parent L-peptide BBB shuttle, H2N-…-CONH2] | efficient BBB permeability |  |  |  |  | 
4 | CC[C@@H](C)[C@@H](NC(=O)[C@@H](Cc1ccc(O)cc1)NC(=O)[C@H]1CCCN1C(=O)[C@@H](CCCNC(=N)N)NC(=O)[C@H](N)Cc1c[nH]cn1)C(=O)N[C@H](C)C(=O)N[C@H](Cc1c[nH]cn1)C(N)=O [retro-D-HAI] |  | not immunogenic per se |  | protease-resistant | protease-resistance | much less immunogenic than the parent peptide
